Laboratory results from US12077503B2, “Substituted cyclic amides and their use as herbicides” (FMC CORPORATION, priority 2015, dated 2024).

Assays:
Assay type in all cases: in vivo
[1] = system: barnyardgrass (Echinochloa crus-galli); assay: Test G Pre-Emergence Protocol; conditions: Echinochloa crus-galli, pre-emergence, 312 h, evaluated after 13 days
Method in brief: (§1)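 Glasshouse pre-emergence test: soil-sown seeds, sprayed after 1 d at 15.625, 62.5 or 250 g/ha. Conditions 24/16° C day/night, 14 h light, 65% humidity, watering twice daily. Rating 13 d post-spray (100 = total damage).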

corn (Zea mays) [2] = assay: Test G Pre-Emergence Protocol; conditions: Zea mays, pre-emergence, 312 h, evaluated after 13 days
Method in brief: as §1

[3] = system: giant foxtail (Setaria faberi); assay: Test G Pre-Emergence Protocol; conditions: Setaria faberi, pre-emergence, 312 h, evaluated after 13 days
Method in brief: as §1

[4] = system: ivy-leaved morning glory (Ipomoea hederacea); assay: Test G Pre-Emergence Protocol; conditions: Ipomoea, pre-emergence, 312 h, evaluated after 13 days
Method in brief: as §1

[5] = system: redroot pigweed (Amaranthus retroflexus); assay: Test G Pre-Emergence Protocol; conditions: Amaranthus retroflexus, pre-emergence, 312 h, evaluated after 13 days
Method in brief: as §1

[6] = system: velvetleaf (Abutilon theophrasti); assay: Test G Pre-Emergence Protocol; conditions: Abutilon theophrasti, pre-emergence, 312 h, evaluated after 13 days
Method in brief: as §1

[7] = system: barnyardgrass (Echinochloa crus-galli); assay: Test G Post-Emergence Protocol; conditions: Echinochloa crus-galli, post-emergence, 312 h
Method in brief: (§2)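 Values are percent visual injury at 13 days after treatment (0 none, 100 total). Treatment was a post-emergence spray at 15.625, 62.5 or 250 g/ha on 8-day-old pot plants kept at 24/16 °C.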

corn (Zea mays) [8] = assay: Test G Post-Emergence Protocol; conditions: Zea mays, post-emergence, 312 h
Method in brief: as §2

[9] = system: giant foxtail (Setaria faberi); assay: Test G Post-Emergence Protocol; conditions: Setaria faberi, post-emergence, 312 h
Method in brief: as §2

[10] = system: ivy-leaved morning glory (Ipomoea hederacea); assay: Test G Post-Emergence Protocol; conditions: Ipomoea, post-emergence, 312 h
Method in brief: as §2

[11] = system: redroot pigweed (Amaranthus retroflexus); assay: Test G Post-Emergence Protocol; conditions: Amaranthus retroflexus, post-emergence, 312 h
Method in brief: as §2

[12] = system: velvetleaf (Abutilon theophrasti); assay: Test G Post-Emergence Protocol; conditions: Abutilon theophrasti, post-emergence, 312 h
Method in brief: as §2

CN1C[C@H](c2cccc(C(C)(C)C#N)c2)[C@@H](C(=O)Nc2ccccc2F)C1=O (racemic) [Compound 1407]
pest or weed control at 15.625 g/ha ([1]; 15.625 g ai/ha, read-out: Barnyard grass damage rating (100=total damage to plant; 0=no damage to plant)): 10%
pest or weed control at 62.5 g/ha ([1]; 62.5 g ai/ha, 100=total damage to plant, 0=no damage to plant, read-out: plant damage rating, Barnyardgrass): 80%
pest or weed control at 250 g/ha ([1]; 250 g ai/ha, read-out: Barnyardgrass damage rating (100=total damage to plant; 0=no damage to plant)): 90%
plant injury at 15.625 g/ha (corn (Zea mays) [2]; 15.625 g ai/ha, read-out: Corn damage rating (100=total damage to plant; 0=no damage to plant)): 0%
plant injury at 62.5 g/ha (corn (Zea mays) [2]; 62.5 g ai/ha, 100=total damage to plant, 0=no damage to plant, read-out: plant damage rating, Corn): 0%
plant injury at 250 g/ha (corn (Zea mays) [2]; 250 g ai/ha, read-out: Corn damage rating (100=total damage to plant; 0=no damage to plant)): 0%
pest or weed control at 15.625 g/ha ([3]; 15.625 g ai/ha, read-out: Foxtail, Giant damage rating (100=total damage to plant; 0=no damage to plant)): 50%
pest or weed control at 62.5 g/ha ([3]; 62.5 g ai/ha, 100=total damage to plant, 0=no damage to plant, read-out: plant damage rating, Foxtail, Giant): 80%
pest or weed control at 250 g/ha ([3]; 250 g ai/ha, read-out: Foxtail, Giant damage rating (100=total damage to plant; 0=no damage to plant)): 90%
pest or weed control at 15.625 g/ha ([4]; 15.625 g ai/ha, read-out: Morning-glory, Ivy-leaved damage rating (100=total damage to plant; 0=no damage to plant)): 0%
pest or weed control at 62.5 g/ha ([4]; 62.5 g ai/ha, 100=total damage to plant, 0=no damage to plant, read-out: plant damage rating, Morningglory, Ivy-leaved): 0%
pest or weed control at 250 g/ha ([4]; 250 g ai/ha, read-out: Morningglory, Ivy-leaved damage rating (100=total damage to plant; 0=no damage to plant)): 0%
pest or weed control at 15.625 g/ha ([5]; 15.625 g ai/ha, read-out: Pigweed, Redroot damage rating (100=total damage to plant; 0=no damage to plant)): 0%
pest or weed control at 62.5 g/ha ([5]; 62.5 g ai/ha, 100=total damage to plant, 0=no damage to plant, read-out: plant damage rating, Pigweed, Redroot): 0%
pest or weed control at 250 g/ha ([5]; 250 g ai/ha, read-out: Pigweed, Redroot damage rating (100=total damage to plant; 0=no damage to plant)): 0%
pest or weed control at 15.625 g/ha ([6]; 15.625 g ai/ha, read-out: Velvetleaf damage rating (100=total damage to plant; 0=no damage to plant)): 0%
pest or weed control at 62.5 g/ha ([6]; 62.5 g ai/ha, 100=total damage to plant, 0=no damage to plant, read-out: plant damage rating, Velvetleaf): 0%
pest or weed control at 250 g/ha ([6]; 250 g ai/ha, read-out: Velvetleaf damage rating (100=total damage to plant; 0=no damage to plant)): 0%
pest or weed control at 15.625 g/ha ([7]; 15.625 g ai/ha, evaluated after 13 days (100=total damage to plant; 0=no damage to plant), read-out: Barnyardgrass damage rating): 10%
pest or weed control at 62.5 g/ha ([7]; 62.5 g ai/ha, evaluated after 13 days, read-out: Barnyardgrass damage rating (100=total damage to plant; 0=no damage to plant)): 40%
pest or weed control at 250 g/ha ([7]; 250 g ai/ha, evaluated after 13 days, read-out: damage to plant, Barnyardgrass (100=total damage to plant; 0=no damage to plant)): 60%
plant injury at 15.625 g/ha (corn (Zea mays) [8]; 15.625 g ai/ha, evaluated after 13 days (100=total damage to plant; 0=no damage to plant), read-out: Corn damage rating): 0%
plant injury at 62.5 g/ha (corn (Zea mays) [8]; 62.5 g ai/ha, evaluated after 13 days, read-out: Corn damage rating (100=total damage to plant; 0=no damage to plant)): 10%
plant injury at 250 g/ha (corn (Zea mays) [8]; 250 g ai/ha, evaluated after 13 days, read-out: damage to plant, Corn (100=total damage to plant; 0=no damage to plant)): 20%
pest or weed control at 15.625 g/ha ([9]; 15.625 g ai/ha, evaluated after 13 days (100=total damage to plant; 0=no damage to plant), read-out: Foxtail, Giant damage rating): 0%
pest or weed control at 62.5 g/ha ([9]; 62.5 g ai/ha, evaluated after 13 days, read-out: Foxtail, Giant damage rating (100=total damage to plant; 0=no damage to plant)): 70%
pest or weed control at 250 g/ha ([9]; 250 g ai/ha, evaluated after 13 days, read-out: damage to plant, Foxtail, Giant (100=total damage to plant; 0=no damage to plant)): 70%
pest or weed control at 15.625 g/ha ([10]; 15.625 g ai/ha, evaluated after 13 days (100=total damage to plant; 0=no damage to plant), read-out: Morningglory, Ivy-leaved damage rating): 0%
pest or weed control at 62.5 g/ha ([10]; 62.5 g ai/ha, evaluated after 13 days, read-out: Morningglory, Ivy-leaved damage rating (100=total damage to plant; 0=no damage to plant)): 20%
pest or weed control at 250 g/ha ([10]; 250 g ai/ha, evaluated after 13 days, read-out: damage to plant, Morningglory, Ivy-leaved (100=total damage to plant; 0=no damage to plant)): 30%
pest or weed control at 15.625 g/ha ([11]; 15.625 g ai/ha, evaluated after 13 days (100=total damage to plant; 0=no damage to plant), read-out: Pigweed, Redroot damage rating): 20%
pest or weed control at 62.5 g/ha ([11]; 62.5 g ai/ha, evaluated after 13 days, read-out: Pigweed, Redroot damage rating (100=total damage to plant; 0=no damage to plant)): 10%
pest or weed control at 250 g/ha ([11]; 250 g ai/ha, evaluated after 13 days, read-out: damage to plant, Pigweed, Redroot (100=total damage to plant; 0=no damage to plant)): 30%
pest or weed control at 15.625 g/ha ([12]; 15.625 g ai/ha, evaluated after 13 days (100=total damage to plant; 0=no damage to plant), read-out: Velvetleaf damage rating): 10%
pest or weed control at 62.5 g/ha ([12]; 62.5 g ai/ha, evaluated after 13 days, read-out: Velvetleaf damage rating (100=total damage to plant; 0=no damage to plant)): 20%
pest or weed control at 250 g/ha ([12]; 250 g ai/ha, evaluated after 13 days, read-out: damage to plant, Velvetleaf (100=total damage to plant; 0=no damage to plant)): 20%
